Measured values taken from US5200424A, “Use of 10-membered ring lactones as lipid regulators” (priority 1990, dated 1993).
Like-named read-outs stand apart in the source and are kept apart here.

Legend:
serum lipoproteins = experiment: Lipoprotein fractionation by ultracentrifugation in rats (serum cholesterol, protein, triglycerides; hypolipemic effect); type: in vivo, Rat, male, strain: HOE WISKf (SPF 71)
Experimental: Male rats with an initial weight above 180 g received the test product of the formula I in polyethylene glycol 400 by gavage once a day (in the morning) (0.5 ml/100 g of body weight); the relevant control group received only the same amount of solvent. The last (7th) administration took place 24 hours before blood sampling and sacrifice. There was free access to feed and water during the test. Feed was withdrawn 24 hours before the retroorbital blood sampling, which took place under light ether anesthesia before and after the treatment period (that is to say on the 1st and 8th day). Serum glutamic-oxalate transaminase (SGOT), serum glutamic-pyruvic transaminase (SGPT), alkaline phosphatase (aP), bilirubin and creatinine were determined in the serum of each individual animal. […] Immediately after the blood sampling the animals were sacrificed by distortion of the spinal column. The livers were removed, and the relative liver weight was determined. In addition, the body weight gain and the feed consumption were investigated. The statistical analysis was carried out by Student's t test.
To analyze the serum lipoproteins, after the treatment period the serum of all rats in a group was pooled.

[1] = Serum enzymes, bilirubin and creatinine in rats; type: in vivo, Rat, male, strain: HOE WISKf (SPF 71)
Experimental: (§1) Male rats with an initial weight above 180 g received the test product of the formula I in polyethylene glycol 400 by gavage once a day (in the morning) (0.5 ml/100 g of body weight); the relevant control group received only the same amount of solvent. The last (7th) administration took place 24 hours before blood sampling and sacrifice. There was free access to feed and water during the test. Feed was withdrawn 24 hours before the retroorbital blood sampling, which took place under light ether anesthesia before and after the treatment period (that is to say on the 1st and 8th day). Serum glutamic-oxalate transaminase (SGOT), serum glutamic-pyruvic transaminase (SGPT), alkaline phosphatase (aP), bilirubin and creatinine were determined in the serum of each individual animal. The total glycerol was measured from the pooled serum of all animals in a group as measure of the triglycerides (Eggstein, M. Kreutz, F. H.: Klin. Wschr. 44, 262 and 267 (1966); Wahlefeld, A. W., in: H. O. Bergmeier: Methoden der enzymatischen Analyse (Methods of enzymatic analysis), 2nd Edition, Volume II, Verlag Chemie 1974, Page 1878). Immediately after the blood sampling the animals were sacrificed by distortion of the spinal column. The livers were removed, and the relative liver weight was determined. In addition, the body weight gain and the feed consumption were investigated. The statistical analysis was carried out by Student's t test.

[2] = Body weight, relative liver weight and feed consumption in rats; type: in vivo, Rat, male, strain: HOE WISKf (SPF 71); conditions: 15 mg/kg/day, male rat, after treatment
Experimental: as §1

[3] = system: cholesterol biosynthesis in HEP-G2 cells; experiment: Cholesterol biosynthesis inhibition in HEP-G2 liver cell cultures (14C-acetate); type: cell-based; conditions: Homo sapiens, 3 h with (14C)acetate
Experimental: (§2) Monolayers of HEP-G2 cells in liproprotein-free nutrient medium are preincubated with appropriate concentrations of the substances of the formula I to be tested for one hour. After addition of the […] biosynthesis precursor sodium (^14 C)acetate the incubation is continued for 3 hours. After this a portion of the cells is subjected to alkaline hydrolysis after addition of an internal standard of ^3 H-cholesterol. The lipids from the hydrolyzed cells are extracted with a chloroform/methanol mixture. This lipid mixture is, after addition of carrier cholesterol, fractionated by preparative thin-layer chromatography, the cholesterol band is stained and then isolated, and the amount of ^14 C-cholesterol formed from the ^14 C-precursor is determined by scintigraphy. Cellular protein was determined in an aliquot of the cells so that the amount of ^14 C-cholesterol formed from ^14 C-precursor per mg of cellular protein per unit time can be calculated. The control is used for comparison for the inhibitory effect of an added test product so that it is possible to state directly the inhibition of the cholesterol biosynthesis at a particular molar concentration of the test product in the medium. The integrity of the cell culture and the absence of cell damage owing to exposure to the product is assessed morphologically (light microscopy) and measured biochemically by determining the lactic dehydrogenase release into the incubation medium on aliquots of the cell culture.

HEP-G2 cells = experiment: Integrity of the cell culture / cell damage (light microscopy, lactic dehydrogenase release); type: cell-based
Experimental: as §2, with “The control is used for comparison for the inhibitory effect of an added test product so that it is possible to state directly the inhibition of the cholesterol biosynthesis at a particular molar concentration of the test product in the medium.” left out

[4] = 15 mg/kg/day, male rat, by gavage, 7 administrations
[5] = 15 mg/kg/day, male rat, after treatment (8th day)
[6] = 15 mg/kg/day, male rat, before treatment (1st day)

Compound: CC1CC(O)C=CC(O)C(O)CC(=O)O1 (centres unmarked)
- % Change compared with control, Protein LDL (serum lipoproteins; [4]): -20%
- % Change compared with control, Protein VLDL (serum lipoproteins; [4]): -12%
- % Change compared with control, Total cholesterol HDL (serum lipoproteins; [4]): -13%
- % Change compared with control, Total cholesterol LDL (serum lipoproteins; [4]): -31%
- % Change compared with control, Total cholesterol VLDL (serum lipoproteins; [4]): -40%
- % Change compared with control, Triglycerides VLDL (serum lipoproteins; [4]): -22%
- Cholesterol HDL/LDL Based on control (serum lipoproteins; 15 mg/kg/day, male rat, by gavage, control 1.00): 1.26
- Cholesterol HDL/LDL (serum lipoproteins; 15 mg/kg/day, male rat, by gavage, control 3.75): 4.74
- reduction in the triglycerides (mainly transported in the VLDL) (serum lipoproteins; rat): distinct reduction
- vasoprotective index HDL-cholesterol: LDL-cholesterol (serum lipoproteins; rat): significant increase
- reduction in the atherogenic serum lipoproteins LDL and VLDL (cholesterol content) (serum lipoproteins; rat, at one seventh of the dose of clofibrate, compared with clofibrate): equally great reduction
- reduction in the HDL fraction (serum lipoproteins; rat, compared with clofibrate): only half as large
- vasoprotective index HDL-cholesterol: LDL-cholesterol compared with clofibrate (serum lipoproteins; rat, compared with clofibrate): distinctly higher than with clofibrate
- Bilirubin, Final, mean [1, 5]: 2.0 µmol/L
- Creatinine, Final, mean [1, 5]: 64 µmol/L
- Serum enzymes SGOT, Final, mean [1, 5]: 56 U/L
- Serum enzymes SGPT, Final, mean [1, 5]: 25 U/L
- Serum enzymes aP, Final, mean [1, 5]: 247 U/L
- Bilirubin, Initial, mean [1, 6]: 2.8 µmol/L
- Creatinine, Initial, mean [1, 6]: 67 µmol/L
- Serum enzymes SGOT, Initial, mean [1, 6]: 41 U/L
- Serum enzymes SGPT, Initial, mean [1, 6]: 29 U/L
- Serum enzymes aP, Initial, mean [1, 6]: 359 U/L
- tolerability parameters: SGOT, SGPT, aP, serum bilirubin and serum creatinine ([1]; rat): not pathologically changed
- % Change from control, Body weight after [2]: -3%
- % Change from control, rel. feed consumption after [2]: -1%
- IC50 ([3]; HepG2, 1 h preincubation, read-out: inhibits biosynthesis by 50% at): 0.1 µM
- cell culture damage (HEP-G2 cells): not damaged

Compound: C[C@H](CCCC(C)(C)O)[C@H]1CC[C@H]2[C@@H]3CC=C4C[C@@H](O)CC[C@]4(C)[C@H]3CC[C@]12C [25-hydroxycholesterol]
- IC50 ([3]; HepG2, standard products, 1 h preincubation, read-out: IC50, inhibition of cholesterol biosynthesis): 0.23 µM
